Assay results from patent publication US11970469B2 (Oxford University Innovation Limited, priority 2018, dated 2024).
pIC50: −log10 of the molar value.

Key:
[1] = test system: RASG12D/CRAF FL; test: BRET2 cell assay with BRET-based RAS biosensor (RAS-effector) in HEK293T; settings: 10 uM compound, 20 hours
Description: 650,000 HEK293T were seeded in each well of a 6 well plate. 24 hours later, cells were transfected with an appropriated BRET-based RAS biosensor (i.e. RAS-effector) using Lipofectamine 2000 transfection reagent (Thermo-Fisher). Cells were detached 24 hours later and washed with PBS and seeded in a white 96 well plate (clear bottom, PerkinElmer, cat #6005181) in OptiMEM no phenol red medium (Life Technologies) complemented with 4% FBS. Cells were left for 4 hours at 37° C. before adding compounds. Stock compounds were held at 10 mM in 100% DMSO and diluted in OptiMEM no red phenol+4% FBS to reach 10× the final concentration (2% DMSO for each concentration). The final concentrations in the cells were 0, 5, 10 and 20 μM (therefore the intermediate 10× concentrations were 0, 50, 100 and 200 μM. 10 μL of 10× compounds were added in each well of the 96 well plate to 0, 5, 10 and 20 μM final concentrations (with final 0.2% DMSO each). Quadruplicates were performed for each point. Cells were left for an additional 20 hours at 37° C. before the BRET2 signal reading directly after addition of Coelenterazine 400a substrate (10 μM final) to cells (Cayman Chemicals, cat #16157). BRET2 reading was carried out on an Envision instrument (2103 Multilabel Reader, PerkinElmer) with the BRET2 Dual Emission optical module (515 nm±30 and 410 nm±80; PerkinElmer).

[2] = target: GST-human KRas166 (G12V) GPPNHP (Homo sapiens, UniProt P01116, G12V); test: KRas small-molecule screening by SPR (BIACORE T200); assay type: binding; parameters: made in house; host or cells: E. coli C41(DE3); key: SPR response units (RU); settings: compounds at final concentration of 100 uM; immobilised KRAS166 (G12V) GPPNHP; no unit printed (method speaks of response units)
Description: For SPR assays pGEX-KRAS(G12V) plasmid was transformed into E. coli C41(DE3). Bacterial cells were cultured at 37° C. to an OD600 of 0.6 and induced with IPTG (final 0.1 mM) at 18° C. over night. The GST fusion proteins were extracted from bacteria pellets after cell disruption in 140 mM NaCl, 2.7 mM KCl, 10 mM NaH2PO4, 1.8 mM KH2PO4, 1 mM EDTA, 2 mM MgCl2 pH 7.4 and purified by glutathione-sepharose column chromatography (GE Healthcare), eluting with 50 mM Tris-HCl pH8.0, 10 mM reduced glutathione, 1 mM DTT, 2 mM MgCl2. The eluted proteins were dialysed against 50 mM Tris-HCl pH8.0, 1 mM DTT, 2 mM MgCl2 and concentrated to 10 mg/ml using a Biomax-30 ULTRAFREE-15 centrifugal filter device (Millipore). Purified KRAS protein was loaded with GPPNHP as described elsewhere (Pacold et al., 2000). Loaded protein was then purified by gel filtration on a HiLoad Superdex-75 HR column (GE Healthcare) in 1×PBS pH7.4, 5 mM MgCl2 and concentrated for storage. Protocol for KRas small-molecule screening and affinity measurements by SPR
To a previously immobilized CM5 chip (GE Healthcare BR-1005-30) with anti GST antibody via amine coupling method, GST in channel 1 and GST-human KRas166 (G12V) GPPNHP in channel 2 were immobilised. GST was immobilised between 2,000 and 5,000 Response units. KRAS166 (G12V) was immobilized between 10,000 to 15,000 Response Units.
In a 96 well plate, compounds were diluted in […], 5 mM MgCl2 and 5% DMSO Buffer to a final concentration of 100 uM. DCAI was used as positive control. Experiment also included a solvent correction curve for 5% DMSO. Screening and evaluation of the protein immobilization and the compounds screening was done accordingly to the BIACORE T200 control and evaluation software.
Calculations for how many response units are required for a 1:1 ratio of compound/protein interaction are shown below. • Protein immobilisation: 10,000 RU; average fragment 300 Da in size. Rmax=(MWA/MWL)×RL×SM • MWA is the molecular weight of the analyte in Da • MWL is the molecular weight of the ligand in Da • RL is the immobilization level in RU • SM is the molar stoichiometry (assume 1:1) • Rmax=300/47,500×10,000×1 • Rmax=63 RU. BRET2 Cell Assay

[3] = test system: DLD1 cells (ATCC CCL-221); test: Cell viability assay, DLD-1 (CellTiter-Glo); assay type: cell-based; settings: DLD-1 cells; for effect on DLD-1 viability over the range of concentrations: 72 hour, 5, 10, 15, 20 μM (FIG. 1); for pIC50: Homo sapiens, 72 h, dose response 5, 10, 15, 20 μM
Description: DLD1 cells (ATCC CCL-221) are cultured in RPMI-1640 medium plus 10% foetal calf serum and 2 mM L-glutamine at 37° C. 5% CO2. Cells are plated onto white clear bottom 96-well plates (5000 cells/well in 200 μl media) and left to adhere overnight at 37° C., 5% CO2. Next day, test compound (1 μl at 200× concentration in 100% DMSO) is added to give final test compound concentration 1× in 0.5% DMSO. After 72 h of incubation at 37° C. 5% CO2, 20 μl CellTiter-Glo reagent (Promega G7572) is added into each well. Plates are incubated at room temperature with shaking for 30 min and then luminescence is read using a PheraStar plate reader. The concentration of compounds that decrease cell viability by 50% is calculated from dose response curves generated using Dotmatics data analysis software Results

Molecule	BRET RASG12D/CRAF FL % Inhibition (10 uM) [1] [%]	SPR [2]	effect on DLD-1 viability over the range of concentrations [3]	pIC50 [3]
COc1cccc(-c2ccc(Nc3cccc(CN4CC(C)OC(C)C4)c3)cc2)c1 (centres unmarked) [Example 12, N-(3-((2,6-dimethylmorpholino)methyl)phenyl)-3′-methoxy-[1,1′-biphenyl]-4-amine]	0	55		
COc1cccc(-c2cccc(CC3(C(=O)NCCn4ccnc4)CCOCC3)c2)c1 [PPIN-2, reference compound]			does not affect DLD-1 viability	
COc1cc(-c2ccc(Nc3ccc(CN(C)C)cc3)cc2)ccc1F [Example 4, N-(4-((dimethylamino)methyl)phenyl)-4′-fluoro-3′-methoxy-[1,1′-biphenyl]-4-amine]	24	80		
COc1cccc(-c2ccc(Nc3cc(C)cc(C)c3)cc2)c1 [Example 9, N-(3,5-dimethylphenyl)-3′-methoxy-[1,1′-biphenyl]-4-amine]	2	28		
COc1cccc(-c2ccc(Nc3ccc(CN(C)C)cc3)cn2)c1 [Example 16, N-(4-((dimethylamino)methyl)phenyl)-6-(3-methoxyphenyl)pyridin-3-amine]	0	209		
COc1nc(-c2cccc3c2OCCO3)ccc1Nc1ccc(CN(C)C)cc1 [Abd-7, reference compound]				5.09
COc1cccc(-c2ccc(Nc3ccc(C(=O)NCC4CCN(Cc5ccccc5)CC4)cc3)cc2)c1 [Example 23, N-((1-benzylpiperidin-4-yl)methyl)-4-((3′-methoxy-[1,1′-biphenyl]-4-yl)amino)benzamide]		99		
COc1cccc(-c2ccc(Nc3cccc(C(=O)NCC4CCNCC4)c3)cc2)c1 [Example 17, 3-((3′-methoxy-[1,1′-biphenyl]-4-yl)amino)-N-(piperidin-4-ylmethyl)benzamide]		396		
COc1cccc(-c2ccc(Nc3ccc(CN(C)C)cc3)c(OC)c2F)c1 [Example 3, N-(4-((dimethylamino)methyl)phenyl)-2-fluoro-3,3′-dimethoxy-[1,1′-biphenyl]-4-amine]	26	177		5.35
N-(3-((2,6-dimethylmorpholino)methyl)phenyl)-3′-methoxy-[1,1′-biphenyl]-4-amine [Example 13]	9	43		
COc1cccc(-c2ccc(Nc3cccc(CN(C)C)c3)c(OC)n2)c1 [Example 15, N-(3-((dimethylamino)methyl)phenyl)-2-methoxy-6-(3-methoxyphenyl)pyridin-3-amine]	35	84		
COc1cc(-c2ccc(Nc3ccc(CN(C)C)cc3)cc2)cc(F)c1F [Example 5, N-(4-((dimethylamino)methyl)phenyl)-3′,4′-difluoro-5′-methoxy-[1,1′-biphenyl]-4-amine]	33	127		
COc1cc(F)cc(-c2ccc(Nc3ccc(CN(C)C)cc3)cc2)c1 [Example 6, N-(4-((dimethylamino)methyl)phenyl)-3′-fluoro-5′-methoxy-[1,1′-biphenyl]-4-amine]	22	245		
COc1cc(-c2ccc(Nc3ccc(CN(C)C)cc3)cc2)ccc1C [Example 18, N-(4-((dimethylamino)methyl)phenyl)-3′-methoxy-4′-methyl-[1,1′-biphenyl]-4-amine]	13	119		
COc1cccc(-c2ccc(Nc3cc(CN(C)C)ccc3C)cc2)c1 [Example 11, N-(5-((dimethylamino)methyl)-2-methylphenyl)-3′-methoxy-[1,1′-biphenyl]-4-amine]	1	69		
COc1cccc(-c2ccc(Nc3cc(C(=O)N(C)C)ccc3C)cc2)c1 [Example 10, 3-((3′-methoxy-[1,1′-biphenyl]-4-yl)amino)-N,N,4-trimethylbenzamide]	0	28		
COc1cccc(-c2ccc(Nc3ccc(CN(C)C)cc3)c(OC)n2)c1 [Example 14, N-(4-((dimethylamino)methyl)phenyl)-2-methoxy-6-(3-methoxyphenyl)pyridin-3-amine]	42	152		
COc1cccc(-c2ccc(Nc3cc(C)cc(C)c3)c(OC)c2F)c1 [Example 8, N-(3,5-dimethylphenyl)-2-fluoro-3,3′-dimethoxy-[1,1′-biphenyl]-4-amine]	0	30		
COc1cccc(-c2ccc(Nc3ccc(C(=O)NCC4CCN(C)CC4)cc3)cc2)c1 [Example 21, 4-((3′-methoxy-[1,1′-biphenyl]-4-yl)amino)-N-((1-methylpiperidin-4-yl)methyl)benzamide]		1583		
COc1cccc(-c2ccc(Nc3ccc(C(=O)NCC4CCNCC4)cc3)cc2)c1 [Example 20, 4-((3′-methoxy-[1,1′-biphenyl]-4-yl)amino)-N-(piperidin-4-ylmethyl)benzamide]		1426		
COc1cccc(-c2ccc(Nc3ccc(CN(C)C)cc3)c(OC)c2)c1 [Example 2, N-(4-((dimethylamino)methyl)phenyl)-3,3′-dimethoxy-[1,1′-biphenyl]-4-amine]	18	233		5.14
COc1cc(C)cc(-c2ccc(Nc3ccc(CN(C)C)cc3)cc2)c1 [Example 7, N-(4-((dimethylamino)methyl)phenyl)-3′-methoxy-5′-methyl-[1,1′-biphenyl]-4-amine]	6	264		
COc1cccc(-c2ccc(Nc3ccc(CN(C)C)cc3)cc2)c1 [Example 1, N-(4-((dimethylamino)methyl)phenyl)-3′-methoxy-[1,1′-biphenyl]-4-amine]	24	230		5.28
O=C(NCC1COc2ccccc2O1)c1ccco1 (centres unmarked) [Abd-2, reference compound]			does not affect DLD-1 viability	
